Among the data in patent US12281122B1, “PI3K inhibitors” (Cogent Biosciences, Inc., priority 2023, dated 2025) are IC50 values, retold here.

The test system of assay [1] is SKBR3 (PI3Kα-Wild Type) cell line. The experiment in a line: HTRF phospho-AKT(S473) cell assay in SKBR3 cells. Format: cell-based, human. An outline of the steps:
(§1)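 T47D (PI3Kα-H1047R; RPMI, 10% FBS, insulin) and SKBR3 (wild-type PI3Kα; McCoy's 5A, 10% FBS) cells treated 2 h at 37 °C with 12-point 1:3 dilutions, top 5 μM and 10 μM respectively, ≤0.5% DMSO. SKBR3 stimulated with 70 ng/ml PDGF-BB for the last 15 min; lysate pAKT(S473) by HTRF, IC50 from curves.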
(TR-FRET usually uses a lanthanide donor and a delayed reading to cut background.)

The subject of assay [2] is T47D (PI3Kα-H1047R) cell line. Briefly: HTRF phospho-AKT(S473) cell assay in T47D cells. Format: cell-based, human. An outline of the steps:
as §1

The mark [3] stands for this setting: Homo sapiens, SK-BR-3; SKBR3 (PI3Kα-Wild Type) cells, HTRF phospho-AKT(S473), 2 hours compound incubation, PDGF-BB stimulated.
The mark [4] stands for this setting: Homo sapiens; T47D (PI3Kα-H1047R) cells, HTRF phospho-AKT(S473), 2 hours compound incubation.
Where [5] appears, read: Homo sapiens, SK-BR-3; HTRF phospho-AKT(S473), SKBR3 (PI3Kα-Wild Type) cells, 2 hours compound incubation, PDGF-BB stimulated.
The mark [6] stands for this setting: Homo sapiens; HTRF phospho-AKT(S473), T47D (PI3Kα-H1047R) cells, 2 hours compound incubation.

For `Cc1cc([C@@H](C)Nc2ccc(Cl)nc2C(=O)NS(C)(=O)=O)c2nc(-c3ccc(Nc4ccccc4C)nc3)n(C)c(=O)c2c1` [Compound 283, (R)-6-chloro-3-((1-(3,6-dimethyl-4-oxo-2-(6-(o-tolylamino)pyridin-3-yl)-3,4-dihydroquinazolin-8-yl)ethyl)amino)-N-(methylsulfonyl) picolinamide], the IC50 (usually the concentration that gives 50% inhibition) in assay [1] (setting [3]) is not below 5000 nM; in assay [2] (setting [4]) it was less than 250 nM.
For `COc1cc(N2CCN(c3nc4c([C@@H](C)Nc5ccc(Cl)nc5C(=O)NS(C)(=O)=O)cc(C)cc4c(=O)n3C)CC2)nc(C)n1` [Compound 718, (R)-6-chloro-3-((1-(2-(4-(6-methoxy-2-methylpyrimidin-4-yl)piperazin-1-yl)-3,6-dimethyl-4-oxo-3,4-dihydroquinazolin-8-yl)ethyl)amino)-N-(methylsulfonyl) picolinamide], the IC50 in assay [1] (setting [5]) was not below 5000 nM; in assay [2] (setting [6]), 250 to 500 nM.
`Cc1cc([C@@H](C)Nc2ccc(Cl)nc2C(=O)NS(C)(=O)=O)c2nc(-c3ccc4nn(C)nc4c3)n(C)c(=O)c2c1` [Compound 781, (R)-6-chloro-3-((1-(3,6-dimethyl-2-(2-methyl-2H-benzo[d][1,2,3]triazol-5-yl)-4-oxo-3,4-dihydroquinazolin-8-yl)ethyl)amino)-N-(methylsulfonyl) picolinamide]: the IC50 in assay [1] (setting [5]) was 1000 to 5000 nM; in assay [2] (setting [6]) it was less than 250 nM.
Regarding `Cc1cc([C@@H](C)Nc2ccc(Cl)nc2C(=O)NS(C)(=O)=O)c2nc(N3C[C@@H]4[C@H](C3)[C@H]4c3nnc(C)s3)n(C)c(=O)c2c1` [Compound 598, 6-chloro-3-(((R)-1-(3,6-dimethyl-2-((1R,5S,6R)-6-(5-methyl-1,3,4-thiadiazol-2-yl)-3-azabicyclo[3.1.0]hexan-3-yl)-4-oxo-3,4-dihydroquinazolin-8-yl)ethyl)amino)-N-(methylsulfonyl) picolinamide], the IC50 is 1000 to 5000 nM in assay [1] (setting [5]) and less than 250 nM in assay [2] (setting [6]).
For `Cc1cc([C@@H](C)Nc2ccc(Cl)nc2C(=O)NS(C)(=O)=O)c2nc(N3CCC[C@@H](c4cncc(C#N)c4)C3)n(C)c(=O)c2c1` (relative stereo) [Compound 263, 6-chloro-3-(((R)-1-(2-((R*)-3-(5-cyanopyridin-3-yl)piperidin-1-yl)-3,6-dimethyl-4-oxo-3,4-dihydroquinazolin-8-yl)ethyl)amino)-N-(methylsulfonyl) picolinamide], the IC50 in assay [1] (setting [3]) is 1000 to 5000 nM; in assay [2] (setting [4]), less than 250 nM.
For `Cc1cc([C@@H](C)Nc2ccc(Cl)nc2C(=O)NS(C)(=O)=O)c2nc(N3CCN(c4cnc(C)nc4)CC3)n(C)c(=O)c2c1` [Compound 257, (R)-6-chloro-3-((1-(3,6-dimethyl-2-(4-(2-methylpyrimidin-5-yl)piperazin-1-yl)-4-oxo-3,4-dihydroquinazolin-8-yl)ethyl)amino)-N-(methylsulfonyl) picolinamide], the IC50 in assay [1] (setting [3]) is 1000 to 5000 nM; in assay [2] (setting [4]) it was less than 250 nM.
Take `Cc1cc([C@@H](C)Nc2ccc(Cl)nc2C(=O)NS(C)(=O)=O)c2nc(N3CCC(c4cc(C)on4)CC3)n(C)c(=O)c2c1` [Compound 571, (R)-6-chloro-3-((1-(3,6-dimethyl-2-(4-(5-methylisoxazol-3-yl)piperidin-1-yl)-4-oxo-3,4-dihydroquinazolin-8-yl)ethyl)amino)-N-(methylsulfonyl) picolinamide]: the IC50 in assay [1] (setting [5]) is 1000 to 5000 nM; in assay [2] (setting [6]), less than 250 nM.
With `COCCn1ncc2cc(-c3nc4c([C@@H](C)Nc5ccc(Cl)nc5C(=O)NS(C)(=O)=O)cc(C)cc4c(=O)n3C)ccc21` [Compound 791, (R)-6-chloro-3-((1-(2-(1-(2-methoxyethyl)-1H-indazol-5-yl)-3,6-dimethyl-4-oxo-3,4-dihydroquinazolin-8-yl)ethyl)amino)-N-(methylsulfonyl) picolinamide], the IC50 in assay [1] (setting [5]) was 1000 to 5000 nM; in assay [2] (setting [6]) it was less than 250 nM.
For the molecule `Cc1cc([C@@H](C)Nc2ccc(Cl)nc2C(=O)NS(C)(=O)=O)c2nc(C3CCN(c4ncc(C#N)cc4C)CC3)n(C)c(=O)c2c1` [Compound 837, (R)-6-chloro-3-((1-(2-(1-(5-cyano-3-methylpyridin-2-yl)piperidin-4-yl)-3,6-dimethyl-4-oxo-3,4-dihydroquinazolin-8-yl)ethyl)amino)-N-(methylsulfonyl) picolinamide], the 50% inhibitory concentration (IC50) fell in the range of 1000 to 5000 nM in assay [1] (setting [5]) and 250 to 500 nM in assay [2] (setting [6]).
As for `Cc1cc([C@@H](C)Nc2ccc(Cl)nc2C(=O)NS(C)(=O)=O)c2nc(N3CC[C@H](c4cnc(C)c(C#N)c4)C3)n(C)c(=O)c2c1` (single isomer, unassigned) [Compound 655, 6-chloro-3-(((R)-1-(2-((R*)-3-(5-cyano-6-methylpyridin-3-yl)pyrrolidin-1-yl)-3,6-dimethyl-4-oxo-3,4-dihydroquinazolin-8-yl)ethyl)amino)-N-(methylsulfonyl) picolinamide], the results for the IC50 in assay [1] (setting [5]) and in assay [2] (setting [6]) were not below 5000 nM and 1000 to 5000 nM, respectively.
For `Cc1cc([C@@H](C)Nc2ccc(Cl)nc2C(=O)NS(C)(=O)=O)c2nc(N3C[C@@H]4[C@H](C3)[C@H]4c3nnc(C)o3)n(C)c(=O)c2c1` [Compound 654, 6-chloro-3-(((R)-1-(3,6-dimethyl-2-((1R,5S,6R)-6-(5-methyl-1,3,4-oxadiazol-2-yl)-3-azabicyclo[3.1.0]hexan-3-yl)-4-oxo-3,4-dihydroquinazolin-8-yl)ethyl)amino)-N-(methylsulfonyl) picolinamide], the IC50 in assay [1] (setting [5]) is 1000 to 5000 nM; in assay [2] (setting [6]), less than 250 nM.
Consider `COc1cccc(N2CCN(c3nc4c([C@@H](C)Nc5ccc(Cl)nc5C(=O)NS(C)(=O)=O)cc(C)cc4c(=O)n3C)CC2)n1` [Compound 596, (R)-6-chloro-3-((1-(2-(4-(6-methoxypyridin-2-yl)piperazin-1-yl)-3,6-dimethyl-4-oxo-3,4-dihydroquinazolin-8-yl)ethyl)amino)-N-(methylsulfonyl) picolinamide], for which the figures for the IC50 in assay [1] (setting [5]) and in assay [2] (setting [6]) were not below 5000 nM and 250 to 500 nM, respectively.
For `Cc1cc([C@@H](C)Nc2ccc(Cl)nc2C(=O)NS(C)(=O)=O)c2nc(N3C[C@@H]4CC(c5cnc(C)nc5)C[C@H]4C3)n(C)c(=O)c2c1` (mixture of isomers) [Compound 762, 6-chloro-3-(((R)-1-(3,6-dimethyl-2-((3aRS,6aRS)-5-(2-methylpyrimidin-5-yl)hexahydrocyclopenta [c]pyrrol-2(1H)-yl)-4-oxo-3,4-dihydroquinazolin-8-yl)ethyl)amino)-N-(methylsulfonyl) picolinamide], the IC50 in assay [1] (setting [5]) is not below 5000 nM; in assay [2] (setting [6]), 250 to 500 nM.
For `Cc1cc([C@@H](C)Nc2ccc(Cl)nc2C(=O)NS(C)(=O)=O)c2nc(N3C[C@@H]4[C@H](C3)[C@H]4c3cnn(C)c3)n(C)c(=O)c2c1` [Compound 336, 6-chloro-3-(((R)-1-(3,6-dimethyl-2-((1R,5S,6S)-6-(1-methyl-1H-pyrazol-4-yl)-3-azabicyclo[3.1.0]hexan-3-yl)-4-oxo-3,4-dihydroquinazolin-8-yl)ethyl)amino)-N-(methylsulfonyl) picolinamide], the IC50 was 1000 to 5000 nM in assay [1] (setting [3]) and less than 250 nM in assay [2] (setting [4]).
As for `Cc1cc([C@@H](C)Nc2ccc(Cl)nc2C(=O)NS(C)(=O)=O)c2nc(N3C[C@@H]4[C@H](C3)[C@H]4c3cc(C4CC4)[nH]n3)n(C)c(=O)c2c1` [Compound 524, 6-chloro-3-(((R)-1-(2-((1R,5S,6R)-6-(5-cyclopropyl-1H-pyrazol-3-yl)-3-azabicyclo[3.1.0]hexan-3-yl)-3,6-dimethyl-4-oxo-3,4-dihydroquinazolin-8-yl)ethyl)amino)-N-(methylsulfonyl) picolinamide], the half-inhibitory concentration (IC50) in assay [1] (setting [5]) is 1000 to 5000 nM; in assay [2] (setting [6]), less than 250 nM.
For the molecule `Cc1cc([C@@H](C)Nc2ccc(Cl)nc2C(=O)NS(C)(=O)=O)c2nc(N3C[C@H]4C[C@@H]3CN4c3ncc(Cl)cn3)n(C)c(=O)c2c1` [Compound 666, 6-chloro-3-(((R)-1-(2-((1R,4R)-5-(5-chloropyrimidin-2-yl)-2,5-diazabicyclo [2.2.1]heptan-2-yl)-3,6-dimethyl-4-oxo-3,4-dihydroquinazolin-8-yl)ethyl)amino)-N-(methylsulfonyl) picolinamide], the IC50 in assay [1] (setting [5]) is not below 5000 nM; in assay [2] (setting [6]) it was 250 to 500 nM.
For `Cc1cc([C@@H](C)Nc2ccc(Cl)nc2C(=O)NS(C)(=O)=O)c2nc(N3CC[C@H](Oc4cnn(CC(F)(F)F)c4)C3)n(C)c(=O)c2c1` [Compound 330, 6-chloro-3-(((R)-1-(3,6-dimethyl-4-oxo-2-((S)-3-((1-(2,2,2-trifluoroethyl)-1H-pyrazol-4-yl)oxy)pyrrolidin-1-yl)-3,4-dihydroquinazolin-8-yl)ethyl)amino)-N-(methylsulfonyl) picolinamide], the IC50 was 1000 to 5000 nM in assay [1] (setting [3]) and less than 250 nM in assay [2] (setting [4]).
Regarding `Cc1cc([C@@H](C)Nc2ccc(Cl)nc2C(=O)NS(C)(=O)=O)c2nc(N3C[C@H]4C[C@@H]3CN4c3ccc(N)cn3)n(C)c(=O)c2c1` [Compound 597, 3-(((R)-1-(2-((1R,4R)-5-(5-aminopyridin-2-yl)-2,5-diazabicyclo [2.2.1]heptan-2-yl)-3,6-dimethyl-4-oxo-3,4-dihydroquinazolin-8-yl)ethyl)amino)-6-chloro-N-(methylsulfonyl) picolinamide], the IC50 was not below 5000 nM in assay [1] (setting [5]) and 1000 to 5000 nM in assay [2] (setting [6]).
As for `Cc1cc([C@@H](C)Nc2ccc(Cl)nc2C(=O)NS(C)(=O)=O)c2nc(N3CCC(c4ccn[nH]4)CC3)n(C)c(=O)c2c1` [Compound 165, (R)-3-((1-(2-(4-(1H-pyrazol-5-yl)piperidin-1-yl)-3,6-dimethyl-4-oxo-3,4-dihydroquinazolin-8-yl)ethyl)amino)-6-chloro-N-(methylsulfonyl) picolinamide], the IC50 was 1000 to 5000 nM in assay [1] (setting [3]) and less than 250 nM in assay [2] (setting [4]).
